Measured values taken from patent US11897867B2, “6-phenyl-4,5-dihydropyridazin-3(2H)-one derivatives as PDE3A and PDE3B inhibitors for treating cancer” (Bayer Aktiengesellschaft, priority 2017, dated 2024).

What was measured:
[1] = test system: HeLa cells (cervical cancer); experiment: Cell proliferation measurement (Cell Titer Glo), HeLa; type: cell-based; settings: Homo sapiens, 72 h treatment, read-out: Anti-proliferation IC50 HeLa (Cervical cancer)
Method in brief: (§1)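 Cells (1000/well; 500 for HeLa) plated overnight at 37 °C, then exposed to a ≥10-point compound dilution series for 72 h at 37 °C, DMSO 0.3% final as vehicle. Viability read by CellTiter-Glo luminescence; IC50 from 4-parameter fit against untreated wells.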

human full length PDE3A = target: T1, human full length PDE3A (Homo sapiens, UniProt Q14432); experiment: PDE3A enzyme inhibition (3H-cAMP Scintillation Proximity Assay); type: biochemical; settings: PDE3A cell extract from Sf9 cells, 60 min room temperature; read-out: Target IC50 PDE3A IC50
T1 construct: Sf9 cells overexpressing human full length PDE3A; purchased SB Drug Discovery, UK; host or cells: Sf9 cells (cell extract)
T1 sequence (Q14432 whole entry): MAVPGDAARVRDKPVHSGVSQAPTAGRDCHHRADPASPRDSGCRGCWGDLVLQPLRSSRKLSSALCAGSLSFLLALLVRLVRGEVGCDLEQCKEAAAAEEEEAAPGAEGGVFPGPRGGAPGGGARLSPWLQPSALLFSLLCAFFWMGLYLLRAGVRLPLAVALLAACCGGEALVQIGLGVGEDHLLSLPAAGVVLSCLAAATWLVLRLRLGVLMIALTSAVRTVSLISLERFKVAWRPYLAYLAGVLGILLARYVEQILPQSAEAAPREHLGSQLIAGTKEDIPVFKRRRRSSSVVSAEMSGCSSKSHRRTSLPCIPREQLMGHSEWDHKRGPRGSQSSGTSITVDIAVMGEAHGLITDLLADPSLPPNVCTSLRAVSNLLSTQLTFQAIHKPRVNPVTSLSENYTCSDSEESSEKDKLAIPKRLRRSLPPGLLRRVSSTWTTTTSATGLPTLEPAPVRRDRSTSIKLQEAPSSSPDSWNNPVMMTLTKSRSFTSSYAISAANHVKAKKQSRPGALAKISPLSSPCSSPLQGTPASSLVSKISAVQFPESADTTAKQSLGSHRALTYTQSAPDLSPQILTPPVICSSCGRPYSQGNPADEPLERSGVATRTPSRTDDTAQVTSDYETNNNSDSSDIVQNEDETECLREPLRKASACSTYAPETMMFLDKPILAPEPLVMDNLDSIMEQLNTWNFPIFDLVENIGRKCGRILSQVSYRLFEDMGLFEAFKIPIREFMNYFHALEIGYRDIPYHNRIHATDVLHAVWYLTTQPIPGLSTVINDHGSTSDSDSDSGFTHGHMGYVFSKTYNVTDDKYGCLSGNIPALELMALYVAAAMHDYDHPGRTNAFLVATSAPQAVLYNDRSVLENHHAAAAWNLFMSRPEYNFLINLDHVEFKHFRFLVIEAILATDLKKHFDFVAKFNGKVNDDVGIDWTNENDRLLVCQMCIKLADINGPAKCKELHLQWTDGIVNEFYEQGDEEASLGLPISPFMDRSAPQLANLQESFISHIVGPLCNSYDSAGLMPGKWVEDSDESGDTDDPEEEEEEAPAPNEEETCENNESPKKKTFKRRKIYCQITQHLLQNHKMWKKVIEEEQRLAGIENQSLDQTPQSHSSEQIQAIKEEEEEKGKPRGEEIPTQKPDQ
Method in brief: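 Sf9 cell extract overexpressing human full-length PDE3A, diluted for linear kinetics (<70% substrate used), in 50 mM Tris/HCl pH 7.5, 8.3 mM MgCl2, 1.7 mM EDTA, 0.2% BSA. [8-3H]cAMP substrate, 60 min at room temperature, yttrium SPA bead read-out; IC50 from sigmoidal curves of % activity.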

SK-MEL-3 (melanoma) = experiment: Cell proliferation measurement (Cell Titer Glo), SK-MEL-3; type: cell-based; settings: Homo sapiens, SK-MEL3, SK-MEL-3 cells, 72 h treatment, read-out: Anti-proliferation IC50 SK-MEL-3 (melanoma)
Method in brief: as §1

H4 = experiment: Cell proliferation measurement (Cell Titer Glo), H4; type: cell-based; settings: Homo sapiens, H4 cells, 72 h treatment, read-out: Anti-proliferation IC50 H4
Protocol: (§2) The antiproliferative activity of the compounds of the general formula (I) was examined in vitro in human cancer cells. For this purpose, 1000 cells (or 500 HeLa cells) were plated in 384-well plates with appropriate growth medium and incubated at 37° C. overnight. After 24 h, the cells on the test plate were treated with the compounds of the general formula (I) as and incubated at 37° C. for 72 h. The compounds were added to the cells by means of an HP D300 digital dispenser in a 10 (or more)-step dilution series. As control, the cells were treated with vehicle (DMSO at 0.3% final concentration). After 72 h, the cells were treated with 20 μl/well of 50% CTG solution in PBS (Promega Cell Titer Glo (catalogue #G755B and G756B)) and incubated at room temperature for 10 min, and luminescence was measured by means of a VICTOR V (Perkin Elmer), in order to determine cell viability at the end of treatment. The percentage effect on cell growth and the IC50 derived therefrom were determined for each test substance using the values from untreated wells (=percent viability). The IC50 values were calculated using a 4-parameter fit.

human full length PDE3B = target: T2, human full length PDE3B (Homo sapiens, UniProt Q13370); experiment: PDE3B enzyme inhibition (3H-cAMP Scintillation Proximity Assay); type: biochemical; settings: PDE3B cell extract from Sf9 cells, 60 min room temperature; read-out: Target IC50 PDE3B IC50
T2 construct: Sf9 cells overexpressing human full length PDE3B; purchased SB Drug Discovery, UK; host or cells: Sf9 cells (cell extract)
T2 sequence (Q13370 whole entry): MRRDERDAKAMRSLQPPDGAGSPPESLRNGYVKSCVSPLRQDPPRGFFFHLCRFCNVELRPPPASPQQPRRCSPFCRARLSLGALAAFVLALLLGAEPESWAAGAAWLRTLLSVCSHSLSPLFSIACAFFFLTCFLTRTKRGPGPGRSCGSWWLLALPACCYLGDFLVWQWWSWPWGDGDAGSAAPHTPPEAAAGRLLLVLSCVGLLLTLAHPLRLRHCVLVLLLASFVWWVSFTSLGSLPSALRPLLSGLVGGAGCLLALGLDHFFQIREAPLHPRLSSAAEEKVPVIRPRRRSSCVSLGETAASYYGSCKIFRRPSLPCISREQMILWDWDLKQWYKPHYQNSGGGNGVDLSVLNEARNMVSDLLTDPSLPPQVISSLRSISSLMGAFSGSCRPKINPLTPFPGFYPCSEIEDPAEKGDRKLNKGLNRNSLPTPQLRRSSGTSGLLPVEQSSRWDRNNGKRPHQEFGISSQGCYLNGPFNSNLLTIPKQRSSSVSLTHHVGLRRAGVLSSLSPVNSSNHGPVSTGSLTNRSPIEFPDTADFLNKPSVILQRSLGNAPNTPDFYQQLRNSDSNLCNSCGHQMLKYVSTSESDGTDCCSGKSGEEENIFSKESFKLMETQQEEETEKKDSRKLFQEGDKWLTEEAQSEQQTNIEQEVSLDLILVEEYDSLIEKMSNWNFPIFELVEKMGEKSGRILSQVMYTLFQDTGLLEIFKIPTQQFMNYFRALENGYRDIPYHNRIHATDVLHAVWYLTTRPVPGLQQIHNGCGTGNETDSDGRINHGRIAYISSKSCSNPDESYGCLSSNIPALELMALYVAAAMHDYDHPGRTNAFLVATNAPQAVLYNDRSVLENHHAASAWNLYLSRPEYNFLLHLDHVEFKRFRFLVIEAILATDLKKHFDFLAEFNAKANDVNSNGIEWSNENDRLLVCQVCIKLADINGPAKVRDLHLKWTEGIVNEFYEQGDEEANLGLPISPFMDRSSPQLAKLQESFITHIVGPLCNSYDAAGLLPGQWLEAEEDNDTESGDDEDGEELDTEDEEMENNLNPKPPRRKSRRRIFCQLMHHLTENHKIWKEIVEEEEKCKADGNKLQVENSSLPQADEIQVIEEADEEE
Method in brief: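 SPA with Sf9 cell extract overexpressing human full-length PDE3B, diluted for linear kinetics and <70% substrate turnover, in 50 mM Tris/HCl pH 7.5, 8.3 mM MgCl2, 1.7 mM EDTA, 0.2% BSA. [8-3H]cAMP substrate, 60 min at room temperature, stopped with yttrium SPA beads. IC50 from sigmoidal fit of % activity vs log concentration.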

NCI-H1734 = experiment: Cell proliferation measurement (Cell Titer Glo), NCI-H1734; type: cell-based; settings: Homo sapiens, NCI-H1734 cells, 72 h treatment, read-out: Anti-proliferation IC50 NCI-H1734
Protocol: as §2

IGR-37 (melanoma) = experiment: Cell proliferation measurement (Cell Titer Glo), IGR-37; type: cell-based; settings: Homo sapiens, IGR-37 cells, 72 h treatment, read-out: Anti-proliferation IC50 IGR-37 (melanoma)
Protocol: as §2

Row | IC50 [1] | IC50 (human full length PDE3A) | IC50 (SK-MEL-3 (melanoma)) | IC50 (human full length PDE3B) | IC50 (NCI-H1734) | IC50 (IGR-37 (melanoma)) | Structure (SMILES) | IC50 (H4)
1 | 0.00459 µM | 0.19 µM | 0.00842 µM | 0.15 µM | 0.0277 µM |  | Cc1cc(C2=NNC(=O)CC2)ccc1-c1ccc(F)cc1 [Example 3, 6-(4′-Fluoro-2-methylbiphenyl-4-yl)-4,5-dihydropyridazin-3(2H)-one] | 0.0366 µM
2 | 0.0069 µM | 0.059 µM | 0.0168 µM | 0.073 µM |  | 0.0329 µM | O=C1CCC(c2cc(Cl)c(N3CCOCC3)c(Cl)c2)=NN1 [Example 124, 6-[3,5-dichloro-4-(morpholin-4-yl)phenyl]-4,5-dihydropyridazin-3(2H)-one] | 
3 | 0.00216 µM | 0.18 µM | 0.00584 µM | 0.077 µM | 0.0188 µM |  | O=C1CCC(c2cc(F)c(N3CC4CC4C3)c(F)c2)=NN1 (centres unmarked) [Example 14, 6-[4-(3-Azabicyclo[3.1.0]hex-3-yl)-3,5-difluorophenyl]-4,5-dihydropyridazin-3(2H)-one] | 0.0309 µM
4 | 0.00559 µM | 0.31 µM | 0.0138 µM | 0.25 µM | 0.032 µM |  | O=C1CCC(c2cc(F)c(N3CCC(F)(F)C3)c(F)c2)=NN1 [Example 13, 6-[4-(3,3-Difluoropyrrolidin-1-yl)-3,5-difluorophenyl]-4,5-dihydropyridazin-3(2H)-one] | 0.0411 µM
